Legend:
Format in all cases: in vivo
[1] = tested on: Zymoseptoria tritici; test: Test A: wheat leaf blotch, preventive spray on wheat seedlings; details: 100 = 100% disease control, 0 = no control; for Test A disease control rating: 50 ppm
From the text: (§1) General protocol for preparing test suspensions for Tests A-F: the test compounds were first dissolved in acetone in an amount equal to 3% of the final volume and then suspended at the desired concentration (in ppm) in acetone and purified water (50/50 mix by volume) containing 250 ppm of the surfactant PEG400 (polyhydric alcohol esters). The resulting test suspensions were then used in Tests A-F.
(§2) The test solution was sprayed to the point of run-off on wheat seedlings. The following day the seedlings were inoculated with a spore suspension of Zymoseptoria tritici (the causal agent of wheat leaf blotch) and incubated in a saturated atmosphere at 24° C. for 48 h, and then moved to a growth chamber at 20° C. for 17 days, after which time disease ratings were made.
(§3) A rating of 100 indicates 100% disease control and a rating of 0 indicates no disease control (relative to the controls). A dash (-) indicates the compound was not tested.

[2] = tested on: Puccinia recondita f. sp. tritici; test: Test B: wheat leaf rust, preventive spray on wheat seedlings; details: 100 = 100% disease control, 0 = no control; for Test B disease control rating: 50 ppm
From the text: as §1
as §2, with “Puccinia recondita f. sp.” for “Zymoseptoria”, “rust)” for “blotch)”, “20°” for “24°”, “24” for “48”, “7” for “17”, “time visual” for “time”
as §3

[3] = tested on: Blumeria graminis f. sp. tritici; test: Test C: wheat powdery mildew, preventive spray on wheat seedlings; details: 100 = 100% disease control, 0 = no control; for Test C disease control rating: 50 ppm
From the text: as §1
The test suspension was sprayed to the point of run-off on wheat seedlings. The following day the seedlings were inoculated with a spore dust of Blumeria graminis f. sp. tritici, (also known as Eysiphe graminis f. sp. tritici, the causal agent of wheat powdery mildew) and incubated in a growth chamber at 20° C. for 8 days, after which time visual disease ratings were made.
as §3

[4] = tested on: Phakopsora pachyrhizi; test: Test D: Asian soybean rust, preventive spray on soybean seedlings; details: 100 = 100% disease control, 0 = no control; for Test D disease control rating: 50 ppm
From the text: as §1
The test solution was sprayed to the point of run-off on soybean seedlings. The following day the seedlings were inoculated with a spore suspension of Phakopsora pachyrhizi (the causal agent of Asian soybean rust) and incubated in a saturated atmosphere at 22° C. for 24 h and then moved to a growth chamber at 22° C. for 8 days, after which time visual disease ratings were made.
as §3

[5] = tested on: Botrytis cinerea; test: Test E: tomato Botrytis, preventive spray on tomato seedlings; details: 100 = 100% disease control, 0 = no control; for Test E disease control rating: 50 ppm
From the text: as §1
(§4) The test suspension was sprayed to the point of run-off on tomato seedlings. The following day the seedlings were inoculated with a spore suspension of Botrytis cinerea (the causal agent of tomato Botrytis) and incubated in a saturated atmosphere at 20° C. for 48 h, and then moved to a growth chamber at 24° C. for 3 days, after which time visual disease ratings were made.
as §3

[6] = tested on: Alternaria solani; test: Test F: tomato early blight, preventive spray on tomato seedlings; details: 100 = 100% disease control, 0 = no control; for Test F disease control rating: 50 ppm
From the text: as §1
as §4, with “Alternaria solani” for “Botrytis cinerea”, “early blight)” for “Botrytis)”, “27°” for “20°”, “20°” for “24°”
as §3

`CCc1c(-c2ccc(F)cc2Cl)c(-c2cc(OC)ccc2Cl)cn(C)c1=O` [Compound 47] was tested, and the “Test A disease control rating” value [1] was 81%, the “Test B disease control rating” value [2] was 100% and the “Test C disease control rating” value [3] was 99%. The “Test D disease control rating” value [4] was 51%, the “Test E disease control rating” value [5] was 91% and the “Test F disease control rating” value [6] was 99%.
In the case of `Cn1cc(-c2ccccc2Cl)c(-c2ccc(F)cc2F)c(Cl)c1=O` [Compound 48], the “Test A disease control rating” value [1] was 99%, the “Test B disease control rating” value [2] was 99% and the “Test C disease control rating” value [3] was 72%. The “Test D disease control rating” value [4] was 77%, the “Test E disease control rating” value [5] was 96% and the “Test F disease control rating” value [6] was 96%.
For `COc1ccc(F)c(-c2cn(C)c(=O)c(Cl)c2-c2ccc(F)cc2F)c1` [Compound 49], the “Test A disease control rating” value [1] was 100%, the “Test B disease control rating” value [2] was 100% and the “Test C disease control rating” value [3] was 0%. The “Test D disease control rating” value [4] was 73%, the “Test E disease control rating” value [5] was 96% and the “Test F disease control rating” value [6] was 100%.
In the case of `CCOc1ccc(Cl)c(-c2cn(C)c(=O)c(Cl)c2-c2ccc(F)cc2F)c1` [Compound 52], the “Test A disease control rating” value [1] was 100%, the “Test B disease control rating” value [2] was 100% and the “Test C disease control rating” value [3] was 91%. The “Test D disease control rating” value [4] was 81%, the “Test E disease control rating” value [5] was 99% and the “Test F disease control rating” value [6] was 99%.
`COc1cc(OC)cc(-c2cn(C)c(=O)cc2-c2ccc(F)cc2Cl)c1` [Compound 53, 4-(2-chloro-4-fluorophenyl)-5-(3,5-dimethoxyphenyl)-1-methyl-2(1H)-pyridinone] gave a pest or weed control at 250 ppm ([1]; Zymoseptoria tritici, 250 ppm, read-out: Test A disease control rating) of 100%, a pest or weed control at 250 ppm ([2]; Puccinia recondita, 250 ppm, read-out: Test B disease control rating) of 97% and a pest or weed control at 250 ppm ([3]; Blumeria graminis, 250 ppm, read-out: Test C disease control rating) of 56%. The pest or weed control at 250 ppm ([4]; Phakopsora pachyrhizi, 216 h, 250 ppm, read-out: Test D disease control rating) was 59%, the pest or weed control at 250 ppm ([5]; Botrytis cinerea, 250 ppm, read-out: Test E disease control rating) was 99% and the pest or weed control at 250 ppm ([6]; Alternaria solani, 250 ppm, read-out: Test F disease control rating) was 0%.
For `Cc1c(-c2cn(C)c(=O)c(Cl)c2-c2ccc(F)cc2Cl)cccc1[N+](=O)[O-]` [Compound 54], the “Test A disease control rating” value [1] was 100%, the “Test B disease control rating” value [2] was 99% and the “Test C disease control rating” value [3] was 0%. For the same compound, the “Test D disease control rating” value [4] was 75%, the “Test E disease control rating” value [5] was 92% and the “Test F disease control rating” value [6] was 26%.
`Cn1cc(-c2sccc2Cl)c(-c2ccc(F)cc2Cl)c(Cl)c1=O` [Compound 55] was tested, and the “Test A disease control rating” value [1] was 96%, the “Test B disease control rating” value [2] was 90% and the “Test C disease control rating” value [3] was 0%. For the same compound, the “Test D disease control rating” value [4] was 0%, the “Test E disease control rating” value [5] was 97% and the “Test F disease control rating” value [6] was 0%.
For `COc1ccc(Cl)c(-c2cn(C)c(=O)c(Cl)c2-c2ccc(C#N)cc2Cl)c1` [Compound 56], the “Test A disease control rating” value [1] was 100%, the “Test B disease control rating” value [2] was 100% and the “Test C disease control rating” value [3] was 98%. The “Test D disease control rating” value [4] was 97%, the “Test E disease control rating” value [5] was 96% and the “Test F disease control rating” value [6] was 99%.
With `COc1ccc(Cl)c(-c2cn(C)c(=O)c(Cl)c2-c2ccccc2C(F)(F)F)c1` [Compound 57] the “Test A disease control rating” value [1] was 98%, the “Test B disease control rating” value [2] was 99% and the “Test C disease control rating” value [3] was 64%. The “Test D disease control rating” value [4] was 44%, the “Test E disease control rating” value [5] was 90% and the “Test F disease control rating” value [6] was 0%.
`COc1ccc(Cl)c(-c2cn(C)c(=O)cc2-c2ccc(Br)cc2Cl)c1` [Compound 58] was tested, and the “Test A disease control rating” value [1] was 98%, the “Test B disease control rating” value [2] was 55% and the “Test C disease control rating” value [3] was 0%. The “Test D disease control rating” value [4] was 0%, the “Test E disease control rating” value [5] was 90% and the “Test F disease control rating” value [6] was 0%.
In the case of `COc1ccc(Cl)c(-c2cn(C)c(=O)cc2-c2ccc(C#N)cc2Cl)c1` [Compound 59], the “Test A disease control rating” value [1] was 99%, the “Test B disease control rating” value [2] was 92% and the “Test C disease control rating” value [3] was 0%. The “Test D disease control rating” value [4] was 0%, the “Test E disease control rating” value [5] was 95% and the “Test F disease control rating” value [6] was 0%.
For `Cc1cc(F)ncc1-c1cn(C)c(=O)c(Cl)c1-c1ccc(F)cc1Cl` [Compound 60], the “Test A disease control rating” value [1] was 99%, the “Test B disease control rating” value [2] was 95% and the “Test C disease control rating” value [3] was 73%. The “Test D disease control rating” value [4] was 65%, the “Test E disease control rating” value [5] was 97% and the “Test F disease control rating” value [6] was 40%.
For `COc1ccc(Cl)c(-c2cn(C)c(=O)c(Cl)c2-c2ccccc2F)c1` [Compound 61], the “Test A disease control rating” value [1] was 100%, the “Test B disease control rating” value [2] was 100% and the “Test C disease control rating” value [3] was 89%. For the same compound, the “Test D disease control rating” value [4] was 94%, the “Test E disease control rating” value [5] was 98% and the “Test F disease control rating” value [6] was 100%.
In the case of `COc1ccc(Cl)c(-c2cn(C)c(=O)cc2-c2ccccc2Br)c1` [Compound 62], the “Test A disease control rating” value [1] was 37%, the “Test B disease control rating” value [2] was 74% and the “Test C disease control rating” value [3] was 0%. For the same compound, the “Test D disease control rating” value [4] was 0%, the “Test E disease control rating” value [5] was 98% and the “Test F disease control rating” value [6] was 0%.
For `Cc1ccsc1-c1cn(C)c(=O)c(Cl)c1-c1ccc(F)cc1Cl` [Compound 63], the “Test A disease control rating” value [1] was 84%, the “Test B disease control rating” value [2] was 80% and the “Test C disease control rating” value [3] was 0%. The “Test D disease control rating” value [4] was 0%, the “Test E disease control rating” value [5] was 88% and the “Test F disease control rating” value [6] was 0%.
With `COc1ccc(Cl)c(-c2cn(C)c(=O)c(Cl)c2-c2cccc(F)c2F)c1` [Compound 64] the “Test A disease control rating” value [1] was 98%, the “Test B disease control rating” value [2] was 100% and the “Test C disease control rating” value [3] was 87%. The “Test D disease control rating” value [4] was 87%, the “Test E disease control rating” value [5] was 96% and the “Test F disease control rating” value [6] was 100%.
For `COc1ccc(Cl)c(-c2cn(C)c(=O)cc2-c2cccc(F)c2F)c1` [Compound 65], the “Test A disease control rating” value [1] was 8%, the “Test B disease control rating” value [2] was 95% and the “Test C disease control rating” value [3] was 0%. For the same compound, the “Test D disease control rating” value [4] was 0%, the “Test E disease control rating” value [5] was 96% and the “Test F disease control rating” value [6] was 0%.
In the case of `Cn1cc(-c2cccc([N+](=O)[O-])c2)c(-c2ccc(F)cc2Cl)c(Cl)c1=O` [Compound 66], the “Test A disease control rating” value [1] was 42%, the “Test B disease control rating” value [2] was 80% and the “Test C disease control rating” value [3] was 0%. The “Test D disease control rating” value [4] was 0%, the “Test E disease control rating” value [5] was 79% and the “Test F disease control rating” value [6] was 0%.
With `COc1ccc(-c2cc(=O)n(C)cc2-c2cc(OC)ccc2Cl)c(Cl)c1` [Compound 68] the “Test A disease control rating” value [1] was 61%, the “Test B disease control rating” value [2] was 98% and the “Test C disease control rating” value [3] was 0%. The “Test D disease control rating” value [4] was 0%, the “Test E disease control rating” value [5] was 88% and the “Test F disease control rating” value [6] was 73%.
With `COc1ccc(-c2c(-c3cc(OC)ccc3Cl)cn(C)c(=O)c2Cl)c(Cl)c1` [Compound 69] the “Test A disease control rating” value [1] was 100%, the “Test B disease control rating” value [2] was 100% and the “Test C disease control rating” value [3] was 99%. For the same compound, the “Test D disease control rating” value [4] was 79%, the “Test E disease control rating” value [5] was 98% and the “Test F disease control rating” value [6] was 100%.
`COc1ccc(Cl)c(-c2cn(C)c(=O)cc2-c2ccccc2C(F)(F)F)c1` [Compound 70] was tested, and the “Test A disease control rating” value [1] was 50%, the “Test B disease control rating” value [2] was 68% and the “Test C disease control rating” value [3] was 83%. For the same compound, the “Test D disease control rating” value [4] was 0%, the “Test E disease control rating” value [5] was 93% and the “Test F disease control rating” value [6] was 0%.
For `COc1ccc(Cl)c(-c2cn(C)c(=O)c(Cl)c2-c2ccc(F)cc2Br)c1` [Compound 71], the “Test A disease control rating” value [1] was 100%, the “Test B disease control rating” value [2] was 100% and the “Test C disease control rating” value [3] was 100%. For the same compound, the “Test D disease control rating” value [4] was 73%, the “Test E disease control rating” value [5] was 96% and the “Test F disease control rating” value [6] was 99%.
With `CCn1cc(-c2cc(OC)ccc2Cl)c(-c2ccc(F)cc2Cl)c(Cl)c1=O` [Compound 75] the “Test A disease control rating” value [1] was 97%, the “Test B disease control rating” value [2] was 97% and the “Test C disease control rating” value [3] was 0%. For the same compound, the “Test D disease control rating” value [4] was 0%, the “Test E disease control rating” value [5] was 98% and the “Test F disease control rating” value [6] was 0%.
In the case of `CCCn1cc(-c2cc(OC)ccc2Cl)c(-c2ccc(F)cc2Cl)c(Cl)c1=O` [Compound 76], the “Test A disease control rating” value [1] was 63%, the “Test B disease control rating” value [2] was 55% and the “Test C disease control rating” value [3] was 0%. The “Test D disease control rating” value [4] was 0%, the “Test E disease control rating” value [5] was 96% and the “Test F disease control rating” value [6] was 0%.
